Data: patent US20160090556A1, “PRODUCTS COMPRISING MALODOR REDUCTION MATERIALS” (The Procter & Gamble Company, priority 2014, published 2016)
Where two headings read alike, the source gives them in different places.

Experiment: Liquid dish neat product liquid-air partition coefficient
Format: physicochemical
Conditions: for Comment Code: Log of liquid dish neat product liquid-air partition coefficient: code letters K, L
[1] = class code letter within Comment Code

| SMILES | Log of liquid dish neat product liquid-air partition coefficient (Comment Code K/L) [1] | Comment Code: Log of liquid dish neat product liquid-air partition coefficient | Log of liquid dish neat product liquid-air partition coefficient (Comment Code K/L) |
| --- | --- | --- | --- |
| C=CC1(C)Cc2occ(C)c2CC1C(=C)C (stereo not shown) [Material 488] | K (Log of liquid dish neat product liquid-air partition coefficient greater than or equal to −7) | K (Log of liquid dish neat product liquid-air partition coefficient greater than or equal to −7) |  |
| O=C1CCC=CCCCCCCCCCC1 [Material 372] | K (Log of liquid dish neat product liquid-air partition coefficient greater than or equal to −7) |  |  |
| CCC(C)C(=O)N(C)c1ccccc1 (stereo not shown) [Material 314] |  | K (Log of liquid dish neat product liquid-air partition coefficient greater than or equal to −7) |  |
| C=C(C)C(=O)OCCc1ccccc1 [Material 971] |  | K (Log of liquid dish neat product liquid-air partition coefficient greater than or equal to −7) |  |
| CCOC(C=C(C)CCC=C(C)C)OCC [Material 521] | K (Log of liquid dish neat product liquid-air partition coefficient greater than or equal to −7) |  |  |
| Cc1ccc(C(C)C)cc1O [Material 575] |  | K (Log of liquid dish neat product liquid-air partition coefficient greater than or equal to −7) |  |
| OCCCc1ccccc1 [Material 254] | K (Log of liquid dish neat product liquid-air partition coefficient greater than or equal to −7) |  |  |
| CC(C)=CCCC1=CCC(C#N)CC1 (stereo not shown) [Material 660] |  |  | K (Log of liquid dish neat product liquid-air partition coefficient greater than or equal to −7) |
| Cc1ccc(C(C)(C)O)cc1 [Material 4] | K (Log of liquid dish neat product liquid-air partition coefficient greater than or equal to −7) |  |  |
| CCCCCCCCOC(=O)c1ccco1 [Material 28] | K (Log of liquid dish neat product liquid-air partition coefficient greater than or equal to −7) |  |  |
| CC1C(C)(C)C2CCC3CC(C)(C)OC3C2C1(C)C (stereo not shown) [Material 679] |  | K (Log of liquid dish neat product liquid-air partition coefficient greater than or equal to −7) | K (Log of liquid dish neat product liquid-air partition coefficient greater than or equal to −7) |
| C=CC(C)(O)CCC=C(C)C (stereo not shown) [Material 157] |  | K (Log of liquid dish neat product liquid-air partition coefficient greater than or equal to −7) |  |
| C=CCCCCCCC/C=C/CC#N [Material 137] | K (Log of liquid dish neat product liquid-air partition coefficient greater than or equal to −7) |  |  |
| CCCCCCCCCC(OCC)OCC [Material 473] | K (Log of liquid dish neat product liquid-air partition coefficient greater than or equal to −7) |  |  |
| CCCCCCCCCCCCCC(=O)OC [Material 104] | K (Log of liquid dish neat product liquid-air partition coefficient greater than or equal to −7) |  |  |
| C=CC1(C)CCC(C(C)(C)O)O1 (stereo not shown) [Material 156] | K (Log of liquid dish neat product liquid-air partition coefficient greater than or equal to −7) |  |  |
| C/C=C(\C)C(=O)OCC/C=C\CC [Material 536] |  | K (Log of liquid dish neat product liquid-air partition coefficient greater than or equal to −7) |  |
| CCCCCCCCCCCCCC(=O)OCC [Material 388] | K (Log of liquid dish neat product liquid-air partition coefficient greater than or equal to −7) |  |  |
| O=C1CCCC=CCCCCCCCCCC1 [Material 788] |  | K (Log of liquid dish neat product liquid-air partition coefficient greater than or equal to −7) | K (Log of liquid dish neat product liquid-air partition coefficient greater than or equal to −7) |
